Assay results published in ChEMBL document CHEMBL3585326, “Discovery of potent carbonic anhydrase and acetylcholine esterase inhibitors: novel sulfamoylcarbamates and sulfamides derived from acetophenones” (Bioorg Med Chem, 2015).

Each compound was assayed against Acetylcholinesterase (Homo sapiens, UniProt P22303).
Chain of Acetylcholinesterase (P22303 whole entry): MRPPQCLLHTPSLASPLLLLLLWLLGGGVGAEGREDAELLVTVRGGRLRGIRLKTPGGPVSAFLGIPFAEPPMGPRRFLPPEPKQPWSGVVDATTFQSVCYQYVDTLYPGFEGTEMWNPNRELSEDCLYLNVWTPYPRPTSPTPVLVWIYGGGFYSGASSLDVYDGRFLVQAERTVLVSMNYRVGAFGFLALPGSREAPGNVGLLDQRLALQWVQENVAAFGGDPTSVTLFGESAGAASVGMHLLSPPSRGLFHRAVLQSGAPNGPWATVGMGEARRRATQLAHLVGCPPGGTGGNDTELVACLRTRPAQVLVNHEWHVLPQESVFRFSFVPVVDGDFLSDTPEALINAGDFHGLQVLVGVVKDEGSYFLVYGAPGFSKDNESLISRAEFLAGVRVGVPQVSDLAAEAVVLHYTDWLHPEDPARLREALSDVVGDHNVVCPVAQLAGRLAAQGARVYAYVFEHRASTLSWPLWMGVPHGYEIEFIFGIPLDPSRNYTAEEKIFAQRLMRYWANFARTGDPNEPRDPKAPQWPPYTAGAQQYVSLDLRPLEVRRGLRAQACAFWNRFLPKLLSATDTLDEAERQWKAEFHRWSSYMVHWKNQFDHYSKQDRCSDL
Description: Inhibition of acetylcholinesterase (unknown origin) assessed as AChI hydrolysis using AChI and DTNB as substrate by Ellman's method

| Structure (SMILES) | IC50 [nM] | Ki [nM] |
| --- | --- | --- |
| COc1ccccc1C(C)NS(N)(=O)=O (stereo not given) | 0.0269 | 0.0382 |
| COc1cccc(OC)c1C(C)NS(N)(=O)=O (stereo not given) | 0.0269 | 0.0081 |
| COc1ccccc1C(C)NS(=O)(=O)NC(=O)OCc1ccccc1 (stereo not given) | 0.0269 | 0.0056 |
| COc1cccc(OC)c1C(C)NS(=O)(=O)NC(=O)OCc1ccccc1 (stereo not given) | 0.0269 | 0.0105 |
| COc1ccc(C(C)NS(=O)(=O)NC(=O)OCc2ccccc2)cc1OC (stereo not given) | 0.0269 | 0.0051 |
| COc1ccc(C(C)NS(N)(=O)=O)cc1 (stereo not given) | 0.0269 | 0.0063 |
| COc1ccc(C(C)NS(=O)(=O)NC(=O)OCc2ccccc2)cc1 (stereo not given) | 0.0269 | 0.0045 |
| COc1ccc(C(C)NS(N)(=O)=O)cc1OC (stereo not given) | 0.0269 | 0.0049 |
| COc1ccc(OC)c(C(C)NS(N)(=O)=O)c1 (stereo not given) | 0.0269 | 0.0056 |
| COc1ccc(OC)c(C(C)NS(=O)(=O)NC(=O)OCc2ccccc2)c1 (stereo not given) | 0.0269 | 0.0229 |
